Reference: the kinase profiling compilation of Christmann-Franck et al. (2016)

Key:
Assay in all cases: KINOMEscan competition binding
Details in all cases: compound 10.0 µM; call rule not given here
NEK7 (human) = NEK7 (human) (UniProt Q8TDX7)
EGFR (human) = EGFR (human) (UniProt P00533)
CAMK1 (human) = CAMK1 (human) (UniProt Q14012)
MARK4 (human) = MARK4 (human) (UniProt Q96L34)
AKT1 (human) = AKT1 (human) (UniProt P31749)
ZAP70 (human) = ZAP70 (human) (UniProt P43403)
TXK (human) = TXK (human) (UniProt P42681)
STK25 (human) = STK25 (human) (UniProt O00506)
PIM1 (human) = PIM1 (human) (UniProt P11309)
STK36 (human) = STK36 (human) (UniProt Q9NRP7)
PTK2 (human) = PTK2 (human) (UniProt Q05397)
ADCK3 (human) = ADCK3 (human) (UniProt Q8NI60)
CLK4 (human) = CLK4 (human) (UniProt Q9HAZ1)
PAK1 (human) = PAK1 (human) (UniProt Q13153)
EPHB4 (human) = EPHB4 (human) (UniProt P54760)
FGFR3 (human) = FGFR3 (human) (UniProt P22607)
PAK4 (human) = PAK4 (human) (UniProt O96013)
STK32B (human) = STK32B (human) (UniProt Q9NY57)
MAP3K4 (human) = MAP3K4 (human) (UniProt Q9Y6R4)
DMPK (human) = DMPK (human) (UniProt Q09013)
ERBB2 (human) = ERBB2 (human) (UniProt P04626)
LIMK2 (human) = LIMK2 (human) (UniProt P53671)
FGFR4 (human) = FGFR4 (human) (UniProt P22455)
PRKG2 (human) = PRKG2 (human) (UniProt Q13237)
RPS6KA4 KD1 (human) = RPS6KA4 KD1 (human) (UniProt O75676)
AKT3 (human) = AKT3 (human) (UniProt Q9Y243)
MAPK11 (human) = MAPK11 (human) (UniProt Q15759)
CAMK2G (human) = CAMK2G (human) (UniProt Q13555)
MAPK9 (human) = MAPK9 (human) (UniProt P45984)
RPS6KA1 KD1 (human) = RPS6KA1 KD1 (human) (UniProt Q15418)
BMPR1A (human) = BMPR1A (human) (UniProt P36894)
ROS1 (human) = ROS1 (human) (UniProt P08922)
CAMK2B (human) = CAMK2B (human) (UniProt Q13554)
EPHA7 (human) = EPHA7 (human) (UniProt Q15375)
PRKCA (human) = PRKCA (human) (UniProt P17252)
[1] = biological target: JAK1 JH2 pseudokinase (human) (UniProt P23458)
PKMYT1 (human) = PKMYT1 (human) (UniProt Q99640)
RPS6KA6 KD1 (human) = RPS6KA6 KD1 (human) (UniProt Q9UK32)
CDC42BPA (human) = CDC42BPA (human) (UniProt Q5VT25)
NEK9 (human) = NEK9 (human) (UniProt Q8TD19)

Sequence of CAMK2G (human) (Q13555 whole entry, looked up): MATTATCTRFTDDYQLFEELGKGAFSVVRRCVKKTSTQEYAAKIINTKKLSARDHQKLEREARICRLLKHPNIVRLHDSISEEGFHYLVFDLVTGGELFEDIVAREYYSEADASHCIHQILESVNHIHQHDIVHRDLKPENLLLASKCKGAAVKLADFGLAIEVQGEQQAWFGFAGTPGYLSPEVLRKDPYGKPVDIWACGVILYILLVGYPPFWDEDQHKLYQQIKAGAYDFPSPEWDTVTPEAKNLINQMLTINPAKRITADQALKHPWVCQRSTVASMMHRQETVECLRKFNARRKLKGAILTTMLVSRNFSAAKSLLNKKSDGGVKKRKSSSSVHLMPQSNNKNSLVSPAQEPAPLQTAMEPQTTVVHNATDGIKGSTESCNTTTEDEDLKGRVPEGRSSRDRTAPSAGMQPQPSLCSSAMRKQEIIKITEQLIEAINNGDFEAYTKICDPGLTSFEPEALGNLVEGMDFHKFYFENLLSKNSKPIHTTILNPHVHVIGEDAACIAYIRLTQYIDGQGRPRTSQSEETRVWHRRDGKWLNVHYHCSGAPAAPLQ
Sequence of EPHB4 (human) (P54760 whole entry, looked up): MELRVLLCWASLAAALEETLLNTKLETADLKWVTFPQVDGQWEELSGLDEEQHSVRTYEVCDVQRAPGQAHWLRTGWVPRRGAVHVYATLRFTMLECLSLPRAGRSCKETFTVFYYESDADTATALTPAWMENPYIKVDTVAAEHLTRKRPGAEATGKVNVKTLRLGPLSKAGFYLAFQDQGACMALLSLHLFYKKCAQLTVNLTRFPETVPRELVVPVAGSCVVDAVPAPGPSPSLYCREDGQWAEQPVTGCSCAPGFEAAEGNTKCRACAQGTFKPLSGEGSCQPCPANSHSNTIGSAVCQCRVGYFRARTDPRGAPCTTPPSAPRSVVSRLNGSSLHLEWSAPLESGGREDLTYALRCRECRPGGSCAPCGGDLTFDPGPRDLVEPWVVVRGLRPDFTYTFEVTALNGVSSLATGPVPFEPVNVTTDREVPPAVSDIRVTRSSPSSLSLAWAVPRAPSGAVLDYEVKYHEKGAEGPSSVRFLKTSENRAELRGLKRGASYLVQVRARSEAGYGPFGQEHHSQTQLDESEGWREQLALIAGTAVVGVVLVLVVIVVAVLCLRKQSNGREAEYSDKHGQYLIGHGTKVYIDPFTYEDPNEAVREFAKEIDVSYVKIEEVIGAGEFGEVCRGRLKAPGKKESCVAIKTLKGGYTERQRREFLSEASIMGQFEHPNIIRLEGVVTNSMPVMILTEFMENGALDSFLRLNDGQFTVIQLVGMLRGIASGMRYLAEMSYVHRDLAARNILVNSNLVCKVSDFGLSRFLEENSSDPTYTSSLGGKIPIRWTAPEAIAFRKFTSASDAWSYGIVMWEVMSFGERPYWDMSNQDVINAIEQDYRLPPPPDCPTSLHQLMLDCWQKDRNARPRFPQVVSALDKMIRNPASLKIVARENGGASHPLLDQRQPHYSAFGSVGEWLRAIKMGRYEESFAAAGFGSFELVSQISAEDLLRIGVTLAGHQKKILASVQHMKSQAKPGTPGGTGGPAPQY
Sequence of CLK4 (human) (Q9HAZ1 whole entry, looked up): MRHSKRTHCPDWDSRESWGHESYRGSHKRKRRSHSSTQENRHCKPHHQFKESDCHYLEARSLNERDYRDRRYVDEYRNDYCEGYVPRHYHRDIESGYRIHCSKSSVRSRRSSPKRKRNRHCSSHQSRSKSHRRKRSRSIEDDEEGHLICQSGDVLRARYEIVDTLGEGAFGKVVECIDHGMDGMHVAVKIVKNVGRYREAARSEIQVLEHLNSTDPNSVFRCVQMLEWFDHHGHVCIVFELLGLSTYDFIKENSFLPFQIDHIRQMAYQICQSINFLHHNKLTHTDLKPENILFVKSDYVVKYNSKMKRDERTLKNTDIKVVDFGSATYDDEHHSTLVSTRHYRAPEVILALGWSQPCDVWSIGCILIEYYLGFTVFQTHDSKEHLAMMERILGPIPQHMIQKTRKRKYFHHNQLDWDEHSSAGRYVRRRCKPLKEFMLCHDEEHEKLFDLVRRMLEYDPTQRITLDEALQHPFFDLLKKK
Sequence of RPS6KA4 KD1 (human) (O75676 whole entry, looked up): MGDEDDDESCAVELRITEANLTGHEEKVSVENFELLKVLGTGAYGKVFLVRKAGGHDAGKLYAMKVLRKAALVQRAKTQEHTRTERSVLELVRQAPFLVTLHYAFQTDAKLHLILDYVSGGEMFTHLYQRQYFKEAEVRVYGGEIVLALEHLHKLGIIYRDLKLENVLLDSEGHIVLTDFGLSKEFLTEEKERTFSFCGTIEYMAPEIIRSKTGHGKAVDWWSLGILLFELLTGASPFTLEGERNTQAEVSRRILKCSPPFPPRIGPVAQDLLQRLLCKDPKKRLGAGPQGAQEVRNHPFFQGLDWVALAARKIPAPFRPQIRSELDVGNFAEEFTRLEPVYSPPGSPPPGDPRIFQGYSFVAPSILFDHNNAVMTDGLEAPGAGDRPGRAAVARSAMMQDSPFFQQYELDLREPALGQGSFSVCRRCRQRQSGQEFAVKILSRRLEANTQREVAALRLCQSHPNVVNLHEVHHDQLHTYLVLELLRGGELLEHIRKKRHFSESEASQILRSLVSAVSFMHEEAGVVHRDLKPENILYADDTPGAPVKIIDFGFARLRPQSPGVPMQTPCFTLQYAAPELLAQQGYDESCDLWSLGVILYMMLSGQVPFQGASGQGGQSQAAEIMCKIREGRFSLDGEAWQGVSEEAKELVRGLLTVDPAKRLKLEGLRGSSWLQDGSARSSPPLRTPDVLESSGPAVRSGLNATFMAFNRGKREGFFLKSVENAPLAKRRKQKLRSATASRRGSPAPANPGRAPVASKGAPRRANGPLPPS
Sequence of ZAP70 (human) (P43403 whole entry, looked up): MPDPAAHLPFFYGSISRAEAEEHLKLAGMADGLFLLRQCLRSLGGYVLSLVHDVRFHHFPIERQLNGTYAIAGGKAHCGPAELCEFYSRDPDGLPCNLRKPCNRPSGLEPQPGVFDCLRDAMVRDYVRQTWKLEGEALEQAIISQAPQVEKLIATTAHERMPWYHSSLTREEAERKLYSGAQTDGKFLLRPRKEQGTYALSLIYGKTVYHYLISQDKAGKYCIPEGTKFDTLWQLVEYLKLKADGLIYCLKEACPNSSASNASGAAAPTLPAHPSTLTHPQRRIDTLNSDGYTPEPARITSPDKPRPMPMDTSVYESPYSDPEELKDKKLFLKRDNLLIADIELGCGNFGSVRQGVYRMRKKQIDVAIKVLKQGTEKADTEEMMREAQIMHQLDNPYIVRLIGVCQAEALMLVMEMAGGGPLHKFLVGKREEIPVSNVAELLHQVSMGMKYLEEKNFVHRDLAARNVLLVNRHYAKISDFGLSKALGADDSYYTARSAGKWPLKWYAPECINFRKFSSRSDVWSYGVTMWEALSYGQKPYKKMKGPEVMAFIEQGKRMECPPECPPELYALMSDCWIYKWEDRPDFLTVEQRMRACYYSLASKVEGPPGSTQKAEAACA
Sequence of MAPK11 (human) (Q15759 whole entry, looked up): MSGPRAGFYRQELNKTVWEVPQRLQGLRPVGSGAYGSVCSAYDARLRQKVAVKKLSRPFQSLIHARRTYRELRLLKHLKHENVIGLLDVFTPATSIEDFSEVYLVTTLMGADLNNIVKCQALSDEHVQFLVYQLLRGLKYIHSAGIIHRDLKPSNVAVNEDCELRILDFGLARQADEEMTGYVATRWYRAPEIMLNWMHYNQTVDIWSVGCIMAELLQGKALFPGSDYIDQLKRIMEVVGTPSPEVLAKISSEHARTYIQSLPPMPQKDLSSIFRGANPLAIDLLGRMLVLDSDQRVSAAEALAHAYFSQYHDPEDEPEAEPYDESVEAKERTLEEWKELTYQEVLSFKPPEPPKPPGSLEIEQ
Sequence of PAK1 (human) (Q13153 whole entry, looked up): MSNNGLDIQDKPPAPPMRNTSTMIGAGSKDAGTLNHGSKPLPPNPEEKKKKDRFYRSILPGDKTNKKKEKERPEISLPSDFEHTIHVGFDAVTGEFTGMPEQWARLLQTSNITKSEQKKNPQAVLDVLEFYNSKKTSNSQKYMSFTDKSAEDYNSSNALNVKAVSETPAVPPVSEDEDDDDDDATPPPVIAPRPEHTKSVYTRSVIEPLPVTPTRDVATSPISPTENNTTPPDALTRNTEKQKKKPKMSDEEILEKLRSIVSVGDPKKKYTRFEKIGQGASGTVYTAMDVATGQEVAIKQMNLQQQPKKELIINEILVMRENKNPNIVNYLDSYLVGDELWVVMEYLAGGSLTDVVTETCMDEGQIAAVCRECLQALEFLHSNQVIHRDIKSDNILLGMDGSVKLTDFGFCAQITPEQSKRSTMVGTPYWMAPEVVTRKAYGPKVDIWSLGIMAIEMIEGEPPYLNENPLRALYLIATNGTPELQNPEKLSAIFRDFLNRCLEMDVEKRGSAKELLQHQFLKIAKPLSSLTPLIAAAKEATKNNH
Sequence of CAMK1 (human) (Q14012 whole entry, looked up): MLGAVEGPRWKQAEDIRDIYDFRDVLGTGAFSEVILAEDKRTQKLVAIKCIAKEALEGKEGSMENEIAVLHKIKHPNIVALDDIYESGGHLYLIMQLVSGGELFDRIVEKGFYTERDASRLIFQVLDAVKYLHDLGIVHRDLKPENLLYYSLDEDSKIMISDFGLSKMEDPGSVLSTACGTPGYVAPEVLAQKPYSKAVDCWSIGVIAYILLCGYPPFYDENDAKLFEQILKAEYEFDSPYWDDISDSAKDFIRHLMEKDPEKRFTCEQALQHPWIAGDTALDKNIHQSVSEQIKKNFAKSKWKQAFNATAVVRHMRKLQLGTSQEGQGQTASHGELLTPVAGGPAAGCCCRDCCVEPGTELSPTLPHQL
Sequence of PIM1 (human) (P11309 whole entry, looked up): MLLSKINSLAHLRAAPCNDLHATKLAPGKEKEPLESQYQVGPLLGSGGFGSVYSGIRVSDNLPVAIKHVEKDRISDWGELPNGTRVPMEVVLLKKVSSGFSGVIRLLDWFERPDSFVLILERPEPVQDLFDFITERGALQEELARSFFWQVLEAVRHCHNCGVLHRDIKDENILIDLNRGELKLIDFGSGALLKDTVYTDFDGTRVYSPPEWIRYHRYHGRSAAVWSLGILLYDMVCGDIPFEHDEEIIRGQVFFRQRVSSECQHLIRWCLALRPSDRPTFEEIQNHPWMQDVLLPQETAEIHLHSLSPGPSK

Structure (SMILES)	kinase still bound, per cent of control (NEK7 (human))	kinase still bound, per cent of control (EGFR (human))	kinase still bound, per cent of control (CAMK1 (human))	kinase still bound, per cent of control (MARK4 (human))	kinase still bound, per cent of control (AKT1 (human))	kinase still bound, per cent of control (ZAP70 (human))	kinase still bound, per cent of control (TXK (human))	kinase still bound, per cent of control (STK25 (human))	kinase still bound, per cent of control (PIM1 (human))	kinase still bound, per cent of control (STK36 (human))	kinase still bound, per cent of control (PTK2 (human))	kinase still bound, per cent of control (ADCK3 (human))	kinase still bound, per cent of control (CLK4 (human))	kinase still bound, per cent of control (PAK1 (human))	kinase still bound, per cent of control (EPHB4 (human))	kinase still bound, per cent of control (FGFR3 (human))	kinase still bound, per cent of control (PAK4 (human))	kinase still bound, per cent of control (STK32B (human))	kinase still bound, per cent of control (MAP3K4 (human))	kinase still bound, per cent of control (DMPK (human))	also measured
Cc1ccc(NC(=O)c2cccc(N3CCCCC3)c2)cc1-c1ccc(C(=O)NCC2CC2)cc1	no effect (inactive)	no effect (inactive)	no effect (inactive)	no effect (inactive)	no effect (inactive)	no effect (inactive)	no effect (inactive)	no effect (inactive)	no effect (inactive)	no effect (inactive)	no effect (inactive)	no effect (inactive)	no effect (inactive)	no effect (inactive)	no effect (inactive)	no effect (inactive)	no effect (inactive)	no effect (inactive)	no effect (inactive)	no effect (inactive)	kinase still bound, per cent of control (ERBB2 (human)): no effect (inactive); kinase still bound, per cent of control (LIMK2 (human)): no effect (inactive); kinase still bound, per cent of control (FGFR4 (human)): no effect (inactive); kinase still bound, per cent of control (PRKG2 (human)): no effect (inactive); kinase still bound, per cent of control (RPS6KA4 KD1 (human)): no effect (inactive); kinase still bound, per cent of control (AKT3 (human)): no effect (inactive); kinase still bound, per cent of control (MAPK11 (human)): 0%; kinase still bound, per cent of control (CAMK2G (human)): no effect (inactive); kinase still bound, per cent of control (MAPK9 (human)): no effect (inactive); kinase still bound, per cent of control (RPS6KA1 KD1 (human)): no effect (inactive); kinase still bound, per cent of control (BMPR1A (human)): no effect (inactive); kinase still bound, per cent of control (ROS1 (human)): no effect (inactive); kinase still bound, per cent of control (CAMK2B (human)): no effect (inactive); kinase still bound, per cent of control (EPHA7 (human)): no effect (inactive); kinase still bound, per cent of control (PRKCA (human)): no effect (inactive); kinase still bound, per cent of control [1]: no effect (inactive); kinase still bound, per cent of control (PKMYT1 (human)): no effect (inactive); kinase still bound, per cent of control (RPS6KA6 KD1 (human)): no effect (inactive); kinase still bound, per cent of control (CDC42BPA (human)): no effect (inactive); kinase still bound, per cent of control (NEK9 (human)): no effect (inactive)
CCS(=O)(=O)Nc1ccc2c(c1)[C@H](/C(=N/c1ccc(CN3CCCCC3)cc1)c1ccccc1)C(=O)N2	no effect (inactive)	21.2%	8.3%	0%	no effect (inactive)	no effect (inactive)	0%	0.4%	12.8%	no effect (inactive)	0%	27.2%	0%	4.9%	0.7%	0%	0.2%	15.4%	28.3%	no effect (inactive)	kinase still bound, per cent of control (ERBB2 (human)): no effect (inactive); kinase still bound, per cent of control (LIMK2 (human)): no effect (inactive); kinase still bound, per cent of control (FGFR4 (human)): 0%; kinase still bound, per cent of control (PRKG2 (human)): 0%; kinase still bound, per cent of control (RPS6KA4 KD1 (human)): 0%; kinase still bound, per cent of control (AKT3 (human)): no effect (inactive); kinase still bound, per cent of control (MAPK11 (human)): no effect (inactive); kinase still bound, per cent of control (CAMK2G (human)): 0.2%; kinase still bound, per cent of control (MAPK9 (human)): 0.1%; kinase still bound, per cent of control (RPS6KA1 KD1 (human)): 0%; kinase still bound, per cent of control (BMPR1A (human)): 4.35%; kinase still bound, per cent of control (ROS1 (human)): 0%; kinase still bound, per cent of control (CAMK2B (human)): 4.6%; kinase still bound, per cent of control (EPHA7 (human)): 0%; kinase still bound, per cent of control (PRKCA (human)): 2.5%; kinase still bound, per cent of control [1]: 1.8%; kinase still bound, per cent of control (PKMYT1 (human)): no effect (inactive); kinase still bound, per cent of control (RPS6KA6 KD1 (human)): 0%; kinase still bound, per cent of control (CDC42BPA (human)): no effect (inactive); kinase still bound, per cent of control (NEK9 (human)): no effect (inactive)
